Earlier results in PMC12281572.
Several values for one entry are separate records, joined by “and”; a condition that tells them apart may be missing. Equal entries are not always repeated.

Experiment: FTIR, 4-fluorophenol as donor (the pK_BHX database, per the paper)
Conditions: CCl4; 25 C

First: CN=C(c1ccc(C)cc1)N(C)C
Second: Cc1ccc(C(=O)N(C)C)cc1
The “pK_BHX (log10 Kf of the 1:1 H-bond complex with 4-fluorophenol, by FTIR)” value of the first is higher: 2.72 log units for the first, 2.27 log units for the second.

Compared with `CC(C)OC(C)C`, `CC(C)CN(C(C)C)C(C)C` is lower in “pK_BHX (log10 Kf of the 1:1 H-bond complex with 4-fluorophenol, by FTIR)” value: 1.11 log units for the first, 0.3 log units for the second.

First: CCN(CC)C(=O)N(c1ccccc1)c1ccccc1
Second: c1ccc(Cc2ccccc2)cc1
The “pK_BHX (log10 Kf of the 1:1 H-bond complex with 4-fluorophenol, by FTIR)” value of the first is higher: 2.07 log units for the first, -0.41 log units for the second.

Compared with `C1CSCSC1`, `CCCCN1CCCC1` is higher in “pK_BHX (log10 Kf of the 1:1 H-bond complex with 4-fluorophenol, by FTIR)” value: -0.06 log units for the first, 2.04 log units for the second.

Going from `CN(C)S(C)(=O)=O` to `CCN(CC)S(=O)(=O)N(CC)CC`, the “pK_BHX (log10 Kf of the 1:1 H-bond complex with 4-fluorophenol, by FTIR)” value rises from 1.0 log units to 1.17 log units.

Compared with `CN(C)c1ccncc1`, `CN(C)c1ccc(C(=O)c2ccccc2)cc1` is lower in “pK_BHX (log10 Kf of the 1:1 H-bond complex with 4-fluorophenol, by FTIR)” value: 2.8 log units for the first, 1.67 log units for the second.

Going from `O=P(c1ccccc1)(c1ccccc1)c1ccccc1` to `Fc1ccc(N=C(Nc2ccccc2)c2ccccc2)cc1`, the “pK_BHX (log10 Kf of the 1:1 H-bond complex with 4-fluorophenol, by FTIR)” value falls from 3.16 log units to 1.25 log units.

First: CCN1C(=O)C=CC1=O
Second: Cc1cc(=O)cc(C)o1
The “pK_BHX (log10 Kf of the 1:1 H-bond complex with 4-fluorophenol, by FTIR)” value of the first is lower: 0.68 log units for the first, 2.5 log units for the second.

Going from `CN=C(c1ccccc1)N(C)C` to `CC(=O)c1ccccc1`, the “pK_BHX (log10 Kf of the 1:1 H-bond complex with 4-fluorophenol, by FTIR)” value falls from 2.62 log units to 1.11 log units.

Going from `CCNC(C)=O` to `CCOC(=O)C(F)(F)F`, the “pK_BHX (log10 Kf of the 1:1 H-bond complex with 4-fluorophenol, by FTIR)” value falls from 2.29 log units to 0.08 log units.

Going from `C#CCNC` to `CCCCSC`, the “pK_BHX (log10 Kf of the 1:1 H-bond complex with 4-fluorophenol, by FTIR)” value falls from 1.64 log units to 0.17 log units.

Going from `CC(C)(C)I` to `CC(C)(C)O`, the “pK_BHX (log10 Kf of the 1:1 H-bond complex with 4-fluorophenol, by FTIR)” value rises from -0.33 log units to 1.14 log units.

Compared with `c1ccc(N2CCCC2)cc1`, `OCCc1ccccc1` is higher in “pK_BHX (log10 Kf of the 1:1 H-bond complex with 4-fluorophenol, by FTIR)” value: 0.16 log units for the first, 0.97 log units for the second.

Going from `CCOC(=O)c1ccc(C(=O)OCC)cc1` to `CCN(CC)C(=O)c1ccc(OC)cc1`, the “pK_BHX (log10 Kf of the 1:1 H-bond complex with 4-fluorophenol, by FTIR)” value rises from 0.76 log units to 2.35 log units.

Compared with `CC(=NC#N)N(C)C`, `CN(C)C=NC(=S)SCc1ccccc1` is lower in “pK_BHX (log10 Kf of the 1:1 H-bond complex with 4-fluorophenol, by FTIR)” value: 2.24 log units for the first, 1.1 log units for the second.

Going from `c1ccc2cnccc2c1` to `c1ccc2oncc2c1`, the “pK_BHX (log10 Kf of the 1:1 H-bond complex with 4-fluorophenol, by FTIR)” value falls from 1.94 log units to 0.68 log units.

Going from `C1=COCC1` to `Fc1cccc(C2=NCCC2)c1`, the “pK_BHX (log10 Kf of the 1:1 H-bond complex with 4-fluorophenol, by FTIR)” value rises from 0.53 log units to 1.66 log units.

Going from `C=CCCCCC` to `CCCN`, the “pK_BHX (log10 Kf of the 1:1 H-bond complex with 4-fluorophenol, by FTIR)” value rises from -0.67 log units to 2.2 log units.

Compared with `O=C1c2ccccc2Cc2ccccc21`, `O=c1c(-c2ccccc2)c1-c1ccccc1` is higher in “pK_BHX (log10 Kf of the 1:1 H-bond complex with 4-fluorophenol, by FTIR)” value: 1.25 log units for the first, 2.3 log units for the second.

Going from `CCN(CC)c1ccc(N=O)cc1` to `CSc1ccc(C(C)=O)cc1`, the “pK_BHX (log10 Kf of the 1:1 H-bond complex with 4-fluorophenol, by FTIR)” value falls from 1.33 log units to 1.21 log units.

Going from `CN1CCN(C)C1=O` to `CN1CCCN(C)C1=O`, the “pK_BHX (log10 Kf of the 1:1 H-bond complex with 4-fluorophenol, by FTIR)” value rises from 2.46 log units to 2.79 log units.

Compared with `CN(C)Cc1cccc(F)c1`, `N#Cc1ccccc1F` is lower in “pK_BHX (log10 Kf of the 1:1 H-bond complex with 4-fluorophenol, by FTIR)” value: 1.27 log units for the first, 0.64 log units for the second.

Going from `COC(C(F)(F)F)C(F)(F)F` to `COc1ccc(C)cc1`, the “pK_BHX (log10 Kf of the 1:1 H-bond complex with 4-fluorophenol, by FTIR)” value rises from -0.41 log units to 0.08 log units.

Going from `N#CC1CCCCC1` to `O=C1CCCCC1`, the “pK_BHX (log10 Kf of the 1:1 H-bond complex with 4-fluorophenol, by FTIR)” value rises from 0.97 log units to 1.39 log units.

Going from `CC1(C)CCCC(C)(C)N1` to `FC12CC3CC(CC(C3)C1)C2`, the “pK_BHX (log10 Kf of the 1:1 H-bond complex with 4-fluorophenol, by FTIR)” value falls from 1.88 log units to 0.31 log units.

Going from `CC(=Nc1ccccc1)Nc1ccccc1` to `c1ccc(-c2nc3ccccc3o2)cc1`, the “pK_BHX (log10 Kf of the 1:1 H-bond complex with 4-fluorophenol, by FTIR)” value falls from 1.66 log units to 1.18 log units.

Going from `CC(=Nc1cccc(Cl)c1)N(C)c1cccc(Cl)c1` to `c1ccc(-c2ccccn2)nc1`, the “pK_BHX (log10 Kf of the 1:1 H-bond complex with 4-fluorophenol, by FTIR)” value rises from 1.05 log units to 1.15 log units.

For `NCCCN`, the “pK_BHX (log10 Kf of the 1:1 H-bond complex with 4-fluorophenol, by FTIR)” value is listed as 2.31 log units.

For `CC(=O)c1ccc([N+](=O)[O-])cc1`, the “pK_BHX (log10 Kf of the 1:1 H-bond complex with 4-fluorophenol, by FTIR)” value is given as 0.57 log units and 0.15 log units.
